Measured values: ChEMBL document CHEMBL3638466 (2015)

Target: Maternal embryonic leucine zipper kinase (Homo sapiens, UniProt Q14680)
Test: Kinase Assay: MELK activity was determined in the presence or absence of compounds using fluorescein isothiocyanate-labeled (FITC-labeled) histone H3 peptide as a substrate. The extent of FITC-labeled histone H3 peptide phosphorylation was measured by immobilized metal ion affinity-based fluorescence polarization (IMAP) technology (Sportsman J R, et al., Assay Drug Dev. Technol. 2: 205-14, 2004) …
Format: single protein

Chain of Maternal embryonic leucine zipper kinase (Q14680 whole entry): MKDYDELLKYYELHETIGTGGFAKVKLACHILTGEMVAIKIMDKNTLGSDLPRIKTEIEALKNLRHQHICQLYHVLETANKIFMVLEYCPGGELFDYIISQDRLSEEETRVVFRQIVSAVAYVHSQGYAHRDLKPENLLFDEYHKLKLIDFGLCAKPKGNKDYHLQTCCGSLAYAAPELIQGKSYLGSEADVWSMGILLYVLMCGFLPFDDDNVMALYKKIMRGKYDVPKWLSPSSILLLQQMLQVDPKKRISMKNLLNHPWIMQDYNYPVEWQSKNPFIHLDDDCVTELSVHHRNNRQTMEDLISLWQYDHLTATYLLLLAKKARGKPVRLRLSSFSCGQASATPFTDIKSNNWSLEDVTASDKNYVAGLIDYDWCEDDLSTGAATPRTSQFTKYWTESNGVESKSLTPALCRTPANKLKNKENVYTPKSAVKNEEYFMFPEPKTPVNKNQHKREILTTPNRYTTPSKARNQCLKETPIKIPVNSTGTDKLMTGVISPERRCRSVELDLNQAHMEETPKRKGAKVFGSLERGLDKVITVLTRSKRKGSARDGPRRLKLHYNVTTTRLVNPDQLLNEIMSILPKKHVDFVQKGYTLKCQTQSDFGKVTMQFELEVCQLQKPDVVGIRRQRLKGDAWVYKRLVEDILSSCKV

Structure (SMILES) | IC50 [nM]
CC(=O)c1cnc2ccc(-c3cc(F)c(O)c(Cl)c3)nc2c1N[C@H]1CC[C@H](NC(=O)[C@@H]2CCCN2)CC1 | 2.4
CC(=O)c1cnc2ccc(-c3cc(Cl)c(O)c(Cl)c3)nc2c1NC[C@H]1CC[C@H](N(C)C)CC1 | 0.6
